Test results published in US10343992B2, “1-cyano-pyrrolidine compounds as USP30 inhibitors” (MISSION THERAPEUTICS LIMITED, priority 2015, dated 2019).

Biological target: USP30 (Homo sapiens (Human), UniProt Q70CQ3)
Assay: USP30 biochemical FP or FI IC50 assay
Conditions: read-out: IC50 range
Protocol: USP30 Biochemical IC50 Assay
Dilution plates were prepared at 21 times the final concentration (2100 μM for a final concentration of 100 μM) in 50% DMSO in a 96-well polypropylene V-bottom plate (Greiner #651201). A typical 8-point dilution series would be 100, 30, 10, 3, 1, 0.3, 0.1, 0.03 μM final. Reactions were performed in duplicate in black 384 well plates (small volume, Greiner 784076) in a final reaction volume of 21 μl. Either 1 μl of 50% DMSO or diluted compound was added to the plate. USP30 was diluted in reaction buffer (40 mM Tris, pH 7.5, 0.005% Tween 20, 0.5 mg/ml BSA, 5 mM—beta-mercaptoethanol) to the equivalent of 0.05 μl/well and 10 μl of diluted USP30 was added to the compound. Enzyme and compound were incubated for 30 min at room temp. Reactions were initiated by the addition of 50 nM of TAMRA labelled peptide linked to ubiquitin via an iso-peptide bond as fluorescence polarisation substrate. Reactions were read immediately after addition of substrate and following a 2 hr incubation at room temperature. Readings were performed on a Pherastar Plus (BMG Labtech). λ Excitation 540 nm; λ Emission 590 nm.
USP30 Biochemical Fluorescence Intensity IC50 Assay
Dilution plates were prepared at 21 times the final concentration (2100 μM for a final concentration of 100 μM) in 50% DMSO in a 96-well polypropylene V-bottom plate (Greiner #651201). A typical 8-point dilution series would be 100, 30, 10, 3, 1, 0.3, 0.1, 0.03 μM final. Reactions were performed in duplicate in black 384 well plates (small volume, Greiner 784076) in a final reaction volume of 21 μl.
Either 1 μl of 50% DMSO or diluted compound was added to the plate. USP30 was diluted in reaction buffer (40 mM Tris, pH 7.5, 0.005% Tween 20, 0.5 mg/ml BSA, 5 mM—beta-mercaptoethanol) to the equivalent of 0.001 μl/well and 10 μl of diluted USP30 was added to the compound. Enzyme and compound were incubated for 30 min at room temp. Reactions were initiated by the addition of Ubiquitin-Rhodamine 110 (U-555; Boston Biochem) at a final concentration of 100 nM. Reactions were read immediately after addition of substrate and following a 2 h incubation at room temperature. Readings were performed on a Pherastar Plus (BMG Labtech). λ Excitation 487 nm; λ Emission 535 nm.

USP30, sequence (Q70CQ3 57-517): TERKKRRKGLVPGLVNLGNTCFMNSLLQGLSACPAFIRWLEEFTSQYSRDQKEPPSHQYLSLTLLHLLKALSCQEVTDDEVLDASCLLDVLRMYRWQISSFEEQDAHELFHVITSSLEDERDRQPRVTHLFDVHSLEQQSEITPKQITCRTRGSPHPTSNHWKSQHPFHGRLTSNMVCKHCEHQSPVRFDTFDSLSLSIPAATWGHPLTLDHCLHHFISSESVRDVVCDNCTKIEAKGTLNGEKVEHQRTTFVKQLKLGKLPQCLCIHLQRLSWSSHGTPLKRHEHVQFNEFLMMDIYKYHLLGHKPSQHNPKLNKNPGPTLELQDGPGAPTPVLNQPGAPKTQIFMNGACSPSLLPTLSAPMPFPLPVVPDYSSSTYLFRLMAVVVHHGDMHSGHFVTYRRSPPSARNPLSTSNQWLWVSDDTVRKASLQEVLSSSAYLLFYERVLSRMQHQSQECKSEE

Compound | IC50 [µM]
N#CN1CCC(NC(=O)c2cc(-c3cccc(Cl)c3)no2)C1 (racemic) [Example 8, 3-(3-chlorophenyl)-N-(1-cyanopyrrolidin-3-yl)isoxazole-5-carboxamide] | < 0.1
N#CN1CCC(NC(=O)C2CC(=O)N(Cc3ccc(F)cc3F)C2)C1 (racemic) [Example 10, N-(1-cyanopyrrolidin-3-yl)-1-(2,4-difluorobenzyl)-5-oxopyrrolidine-3-carboxamide] | 0.1 to 1
N#CN1CCC(NC(=O)c2cc(-c3ccccc3)nc3ccccc23)C1 (racemic) [Example 17, N-(1-cyanopyrrolidin-3-yl)-2-phenylquinoline-4-carboxamide] | 1 to 10
N#CN1CCC(NC(=O)c2ccc(N3CCN(c4ccc(F)cc4F)CC3)nc2)C1 (racemic) [Example 19, N-(1-cyanopyrrolidin-3-yl)-6-(4-(2,4-difluorophenyl)piperazin-1-yl)nicotinamide] | 0.1 to 1
CCOC(=O)N1CCN(c2ccc(C(=O)NC3CCN(C#N)C3)cn2)CC1 (racemic) [Example 20, ethyl 4-(5-((1-cyanopyrrolidin-3-yl)carbamoyl)pyridin-2-yl)piperazine-1-carboxylate] | 1 to 10
N#CN1CCC(NC(=O)c2ccc(N3CCCC3c3cccnc3)nc2)C1 (racemic) [Example 21, N-(1-cyanopyrrolidin-3-yl)-6-(2-(pyridin-3-yl)pyrrolidin-1-yl)nicotinamide] | 1 to 10
N#CN1CCC(NC(=O)c2ccc(N3CCC(c4ccncc4)CC3)nc2)C1 (racemic) [Example 23, N-(1-cyanopyrrolidin-3-yl)-6-(4-(pyridin-4-yl)piperidin-1-yl)nicotinamide] | 0.1 to 1
N#CN1CCC(NC(=O)c2cccc(N3CCC(Oc4ccccc4)CC3)n2)C1 (racemic) [Example 26, N-(1-cyanopyrrolidin-3-yl)-6-(4-phenoxypiperidin-1-yl)picolinamide] | 1 to 10
N#CN1C[C@H]2CCN(C(=O)c3cc(-c4ccccc4)n[nH]3)[C@H]2C1 (racemic) [Example 52, rac-(3aR,6aR)-1-(3-phenyl-1H-pyrazole-5-carbonyl)hexahydropyrrolo[3,4-b]pyrrole-5(1H)-carbonitrile] | 0.1 to 1
N#CN1C[C@H]2CCN(C(=O)c3cc(-c4ccccc4)no3)[C@H]2C1 (racemic) [Example 53, rac-(3aR,6aR)-1-(3-phenylisoxazole-5-carbonyl)hexahydropyrrolo[3,4-b]pyrrole-5(1H)-carbonitrile] | 0.1 to 1
N#CN1C[C@H]2CCN(C(=O)c3cn(-c4ccccc4)cn3)[C@H]2C1 (racemic) [Example 54, rac-(3aR,6aR)-1-(1-phenyl-1H-imidazole-4-carbonyl)hexahydropyrrolo[3,4-b]pyrrole-5(1H)-carbonitrile] | 0.1 to 1
COc1ccc(-c2cc(C(=O)N3CC[C@@H]4CN(C#N)C[C@@H]43)on2)cc1 (racemic) [Example 56, rac-(3aR,6aR)-1-(3-(4-methoxyphenyl)isoxazole-5-carbonyl)hexahydropyrrolo[3,4-b]pyrrole-5(1H)-carbonitrile] | 0.1 to 1
N#CN1C[C@H]2CCN(C(=O)c3ccc(F)c(-c4ccncc4)c3)[C@H]2C1 (racemic) [Example 57, rac-(3aR,6aR)-1-(4-fluoro-3-(pyridin-4-yl)benzoyl)hexahydropyrrolo[3,4-b]pyrrole-5(1H)-carbonitrile] | 0.1 to 1
CO[C@@H]1CCN(c2ccc(C(=O)N[C@H]3CN(C#N)C[C@@H]3C)c(F)c2)C1 (racemic) [Example 92, N-((trans)-1-cyano-4-methylpyrrolidin-3-yl)-2-fluoro-4-((R)-3-methoxypyrrolidin-1-yl)benzamide] | 0.1 to 1
C[C@@H]1[C@H](NC(=O)c2ccc(-c3ccc(F)cc3)cn2)CCN1C#N (racemic) [Example 174, N-((cis)-1-cyano-2-methylpyrrolidin-3-yl)-5-(4-fluorophenyl)picolinamide] | 0.1 to 1
N#CN1C[C@H](NC(=O)c2cnc(-c3ccccc3Cl)s2)[C@@H](O)C1 (relative stereo) [Example 93, 2-(2-chlorophenyl)-N-((trans)-1-cyano-4-hydroxypyrrolidin-3-yl) thiazole-5-carboxamide] | < 0.1
Cn1cc(-c2ccc(C(=O)N[C@@H]3CN(C#N)C[C@@H]3C3CC3)cc2F)cn1 (relative stereo) [Example 177, N-((cis)-1-cyano-4-cyclopropylpyrrolidin-3-yl)-3-fluoro-4-(1-methyl-1H-pyrazol-4-yl)benzamide] | 0.1 to 1

More lines, now with the values ahead:

IC50 [µM] | Compound
0.1 to 1 | N#CN1CCC(NC(=O)c2nc(-c3ccccc3)cs2)C1 (racemic) [Example 7, N-(1-cyanopyrrolidin-3-yl)-4-phenylthiazole-2-carboxamide]
0.1 to 1 | N#CN1CCC(NC(=O)c2cn(-c3ccccc3)cn2)C1 (racemic) [Example 9, N-(1-cyanopyrrolidin-3-yl)-1-phenyl-1H-imidazole-4-carboxamide]
0.1 to 1 | Cc1noc(C)c1-c1ccc(C(=O)NC2CCN(C#N)C2)cc1 (racemic) [Example 12, N-(1-cyanopyrrolidin-3-yl)-4-(3,5-dimethylisoxazol-4-yl)benzamide]
< 0.1 | N#CN1CCC(NC(=O)c2ccc(-c3cccc(Cl)c3)cc2)C1 (racemic) [Example 13, 3′-chloro-N-(1-cyanopyrrolidin-3-yl)-[1,1′-biphenyl]-4-carboxamide]
< 0.1 | COc1ccccc1-c1ccc(C(=O)NC2CCN(C#N)C2)cc1 (racemic) [Example 14, N-(1-cyanopyrrolidin-3-yl)-2′-methoxy-[1,1′-biphenyl]-4-carboxamide]
1 to 10 | N#CN1CCC(NC(=O)c2ccc(Oc3ccccc3)cc2)C1 (racemic) [Example 15, N-(1-cyanopyrrolidin-3-yl)-4-phenoxybenzamide]
1 to 10 | N#CN1CCC(NC(=O)Cc2ccc(-c3ccccc3)cc2)C1 (racemic) [Example 16, 2-([1,1′-biphenyl]-4-yl)-N-(1-cyanopyrrolidin-3-yl)acetamide]
1 to 10 | N#CN1CCC(NC(=O)c2ccc(N3CCC(C(N)=O)CC3)nc2)C1 (racemic) [Example 18, 6-(4-carbamoylpiperidin-1-yl)-N-(1-cyanopyrrolidin-3-yl)nicotinamide]
1 to 10 | N#CN1CCC(NC(=O)c2cccc(N3CCc4ccccc4C3)n2)C1 (racemic) [Example 25, N-(1-cyanopyrrolidin-3-yl)-6-(3,4-dihydroisoquinolin-2(1H)-yl)picolinamide]
1 to 10 | CC(=O)N1CCCN(c2cc(C(=O)NC3CCN(C#N)C3)ccn2)CC1 (racemic) [Example 28, 2-(4-acetyl-1,4-diazepan-1-yl)-N-(1-cyanopyrrolidin-3-yl)isonicotinamide]
< 0.1 | N#CN1C[C@H]2CCN(C(=O)c3cccc(-c4ccccc4)c3)[C@H]2C1 (racemic) [Example 51, rac-(3aR,6aR)-1-([1,1′-biphenyl]-3-carbonyl)hexahydropyrrolo[3,4-b]pyrrole-5(1H)-carbonitrile]
0.1 to 1 | COc1ccc(-c2cc(C(=O)N3CC[C@@H]4CN(C#N)C[C@@H]43)[nH]n2)cc1 (racemic) [Example 55, rac-(3aR,6aR)-1-(3-(4-methoxyphenyl)-1H-pyrazole-5-carbonyl)hexahydropyrrolo[3,4-b]pyrrole-5(1H)-carbonitrile]
0.1 to 1 | Cn1cc(-c2cc(C(=O)N3CC[C@@H]4CN(C#N)C[C@@H]43)ccc2F)cn1 (racemic) [Example 58, rac-(3aR,6aR)-1-(4-fluoro-3-(1-methyl-1H-pyrazol-4-yl)benzoyl)hexahydropyrrolo[3,4-b]pyrrole-5(1H)-carbonitrile]
0.1 to 1 | COc1cc(C(=O)N2CC[C@@H]3CN(C#N)C[C@@H]32)ccc1-c1ccncc1Cl (racemic) [Example 59, rac-(3aR,6aR)-1-(4-(3-chloropyridin-4-yl)-3-methoxybenzoyl)hexahydropyrrolo[3,4-b]pyrrole-5(1H)-carbonitrile]
1 to 10 | COc1cc(C(=O)N2CC[C@@H]3CN(C#N)C[C@@H]32)ccc1-c1cnn(C)c1 (racemic) [Example 60, rac-(3aR,6aR)-1-(3-methoxy-4-(1-methyl-1H-pyrazol-4-yl)benzoyl)hexahydropyrrolo[3,4-b]pyrrole-5(1H)-carbonitrile]
< 0.1 | C[C@H]1CN(C#N)C[C@@H]1NC(=O)c1ccc(N2CCOCC2)c(Cl)c1 (racemic) [Example 175, 3-chloro-N-((trans)-1-cyano-4-methylpyrrolidin-3-yl)-4-morpholinobenzamide]
